Data taken from patent publication US20180244653A1, “SELECTIVE ALPHA-7 NICOTINIC RECEPTOR AGONISTS AND METHODS FOR MAKING AND USING THEM” (THE REGENTS OF THE UNIVERSITY OF CALIFORNIA, priority 2015, published 2018).
“And” between values parts separate entries of the source, which are not always exact repeats. Equal entries are not always repeated. “Also recorded” adds a separate entry of the source. Where two headings read alike, the source gives them in different places.

Legend:
5HT3A receptors [1] = biological target: T1, 5HT3A receptors (Mus musculus, UniProt P23979); assay: Intact cell competitive radioligand binding assay ([3H]-granisetron, SPA), LGIC-CNiFERs; conditions: >10 = did not pass initial screen at 10 μM
T1 construct: expressed in transfected cells; host or cells: HEK293 cells co-expressing TN-XXL
T1 sequence (P23979 24-489): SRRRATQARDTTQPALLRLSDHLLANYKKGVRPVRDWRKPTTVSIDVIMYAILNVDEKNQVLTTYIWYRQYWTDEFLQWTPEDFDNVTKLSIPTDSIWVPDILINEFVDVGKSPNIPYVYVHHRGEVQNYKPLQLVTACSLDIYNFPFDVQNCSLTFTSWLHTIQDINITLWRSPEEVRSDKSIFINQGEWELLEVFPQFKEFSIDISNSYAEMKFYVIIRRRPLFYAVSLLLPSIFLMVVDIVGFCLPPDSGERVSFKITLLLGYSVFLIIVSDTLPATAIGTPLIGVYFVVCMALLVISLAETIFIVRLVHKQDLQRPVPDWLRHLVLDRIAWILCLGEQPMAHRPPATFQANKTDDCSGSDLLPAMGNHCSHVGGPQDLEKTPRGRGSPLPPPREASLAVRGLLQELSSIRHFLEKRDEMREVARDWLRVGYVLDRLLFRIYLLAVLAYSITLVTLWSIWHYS

α4β2-nAChRs [2] = biological target: T2, α4β2-nAChRs (Homo sapiens, UniProt P17787+P43681); assay: FRET functional assay (agonist/antagonist) using LGIC-CNiFERs; format: cell-based; conditions: for Functional properties at α4β2-nAChRs (agonist / antagonist, type): functional screening and characterization
T2 construct: expressed in transfected cells; host or cells: HEKtsA201 cells co-expressing TN-XXL
Procedure: (§1) Initially, the agonist properties of tested compounds were assessed directly. […] All α7-nAChR functional assays were performed in the presence of PNU-120596, an α7-nAChR positive allosteric modulator (PAM), to increase signal and delay the sensitization state of α7-nAChRs enabling the measurement of more prolonged FRET signals.^29 Compounds having agonist responses of >0.20 were determined for EC50, and compounds having inhibition fraction of >0.50 were determined for KA.^25 EC50>13.3 μM and KA>10 μM which are a screening concentration for agonist and antagonist, respectively were reported compounds not taken for further in the screening of receptor occupation and responses.
(§2) Agonist and antagonist elicited responses were characterized using the above CNiFER cell expressing Cys-loop ligand-gated ion channel (LGIC) receptors. […] A 96-well black, clear-bottom microplate (Greiner bio-one, Germany) was coated with poly-D-lysine (Sigma-Aldrich, St. Louis, Mo.) 50 μL/well for 30 min and washed out with Phosphate-Buffered Saline (PBS) (Corning, Cellgro, Manassas, Va.) before plating the cells. After plating and incubation at 37° C. for 1 day, the media was replaced with 100 μL of artificial cerebrospinal fluid (aCSF: 121 mM NaCl, 5 mM KCl, 26 mM NaHCO3, 1.2 mM NaH2PO4H2O, 10 mM glucose, 2.4 mM CaCl2, 1.3 mM MgSO4, 5 mM HEPES, pH 7.4) for 4032 and 5HT3A receptors, whereas 10 μM PNU-120596 (Tocris Bioscience, Bristol, UK) in aCSF with 30 min incubation at 37° C. was used for α7-nAChR. The tested compounds were prepared in aCSF for all receptors except α7-nAChR, where 10 μM PNU-120596, a positive allosteric modulator (PAM) was used. The prepared compounds were added in a separate 96-well polypropylene plate (Costar, Corning, N.Y.). Experiments were conducted at 37° C. using 436-nm excitation. Emitted light was collected at 485 nm and 528 nm. Basal fluorescence was recorded for 30 s, followed by addition of 50 μL of ligand (first addition). Measurements were made at 3.84 s intervals for 2 min to measure the agonistic effect. […] Agonist and antagonist properties were sequentially screened at the final concentration of 13.3 and 10 μM, respectively, which differed from the screening concentration from intact cell binding assay (10 μM).

α7-nAChRs = biological target: T3, α7-nAChRs (Homo sapiens, UniProt P36544); assay: as above; format: cell-based; conditions: for EC50: in presence of 10 μM PNU-120596, * partial agonist, read-out: Agonist EC50 ± SD, α7
T3 construct: expressed in transfected cells; host or cells: HEKtsA201 cells co-expressing TN-XXL
Procedure: as §1, §2

5HT3A receptors [3] = biological target: T1, 5HT3A receptors; assay: as above; format: cell-based; conditions: for Kd / Antagonist KA ± SD, 5HT3A: competitive antagonist (^C), vs 5-HT; for Kd: read-out: Antagonist KA ± SD, 5HT3A; for Functional properties at 5HT3A receptors (agonist / antagonist, type): functional screening and characterization; for EC50: read-out: Agonist EC50 ± SD, 5HT3A
Procedure: as §1, §2

[4] = biological target: α7/5HT3A chimera receptor (hα7/m5HT3A), used for α7-nAChRs (UniProt P23979+P36544, M226I/T225I); assay: Intact cell competitive radioligand binding assay ([3H]-(±)-epibatidine, SPA), LGIC-CNiFERs; conditions: for Kd: read-out: Kd ± SD, α7-nAChRs, >10 = did not pass initial screen at 10 μM
α4β2-nAChRs [5] = biological target: T2, α4β2-nAChRs; assay: as above; conditions: 10 μM, more than 50% radioligand displacement
[6] = read-out: Antagonist KA ± SD, α4β2
[7] = >10 = did not pass initial screen
[8] = read-out: Antagonist KA ± SD, α4β2, non-competitive
[9] = competitive antagonist (^C), >10 = did not pass initial screen, vs (±)-epibatidine
[10] = non-competitive antagonist (^NC)
[11] = competitive antagonist (^C), >10 = did not pass initial screen, vs (±)-epibatidine, read-out: Antagonist KA ± SD, α4β2
[12] = Antagonist KA ± SD, α4β2, competitive antagonist (^C), >10 = did not pass initial screen, vs (±)-epibatidine

Structure (SMILES)	EC50 (α7-nAChRs; [7]) [µM]	Kd (5HT3A receptors [3]; [7])	Functional properties at 5HT3A receptors (agonist / antagonist, type) (5HT3A receptors [3])	EC50 (5HT3A receptors [3]) [µM]	Kd [4] [µM]	also measured
c1cc2cc(-c3cn(CCN4CCCCC4)nn3)ccc2[nH]1 [IND1, 5-(1-(2-(Piperidin-1-yl)ethyl)-1H-1,2,3-triazol-4-yl)-1H-indole]	0.17	> 10 µM	agonist and antagonist responses were not observed	> 10		Kd (5HT3A receptors [1]; read-out: Kd ± SD, 5HT3A): 5.52 µM; Kd (α4β2-nAChRs [2]; [6]): > 10 µM; Fold increase in α7-nAChR agonist potency over lead compound TTIn-1 (α7-nAChRs): 3.5 fold
c1cc2cc(-c3cn(CCCN4CCCCC4)nn3)ccc2[nH]1 [IND2, 5-(1-(3-(Piperidin-1-yl)propyl)-1H-1,2,3-triazol-4-yl)-1H-indole]	2.2		agonist and antagonist responses were not observed		7.2	
CN1[C@@H]2CCC[C@H]1CC(n1cc(-c3ccc4[nH]ccc4c3)nn1)C2 (stereo partly drawn) [IND7, 5-(1-((1R,5S)-9-Methyl-9-azabicyclo[3.3.1]nonan-3-yl)-1H-1,2,3-triazol-4-yl)-1H-indole]			agonist and antagonist responses were not observed		4.52	Functional properties at α4β2-nAChRs (agonist / antagonist, type) (α4β2-nAChRs [2]): weak antagonistic properties; Kd (α4β2-nAChRs [2]; [8]): 22.2 µM
CN1CCCC(n2cc(-c3ccc4[nH]ccc4c3)nn2)C1 (stereo not drawn) [IND11, 5-(1-(1-Methylpiperidin-3-yl)-1H-1,2,3-triazol-4-yl)-1H-indole]	3.3				5.07	
CN(C)CCn1cc(-c2ccc3[nH]ccc3c2)nn1 [IND12, 5-(1-(2-(N,N-Dimethylamino)ethyl)-1H-1,2,3-triazol-4-yl)-1H-indole]	5.74		mix-competitive antagonist		7.68	
c1cc2cc(-c3cn(CCN4CCCC4)nn3)ccc2[nH]1 [IND13, 5-(1-(2-(Pyrrolidin-1-yl)ethyl)-1H-1,2,3-triazol-4-yl)-1H-indole]	2.17				4.84	
O=Cc1c[nH]c2ccc(-c3cn(CCN4CCCCC4)nn3)cc12 [PPRD5, 5-((1-(2-Piperidin-1-yl)ethyl)-1,2,3-triazol-4-yl)-indole-3-carbaldehyde]	1.05 ± 0.17	> 10 µM		> 10	3.27	Kd (α4β2-nAChRs [2]; [6]): > 10 µM
Cn1ccc2cc(-c3cn(CCN4CCCCC4)nn3)ccc21 [PPRD9, 1-(2-((1-Methyl-5-indolyl)-1,2,3-triazol-1-yl)ethyl)piperidine]	12.9		mixed (competitive,non-competive) antagonist		12.1	Antagonist KA ± SD, α4β2 (α4β2-nAChRs [2]; [9]): 10.5 ± 3.1^C,^ μM; Functional properties at α4β2-nAChRs (agonist / antagonist, type) (α4β2-nAChRs [2]): α4β2-nAChR antagonists; also recorded: mix-competitive antagonist; Antagonist KA ± SD, α4β2, non-competitive (α4β2-nAChRs [2]; [10]): 25.5 ± 12.8^NC μM; Antagonist KA ± SD, 5HT3A (5HT3A receptors [3]; [7]): 15.1 ± 4.0^C, μM; Antagonist KA ± SD, 5HT3A, non-competitive (5HT3A receptors [3]; [10]): 56.0 ± 31.0^NC μM
c1ccc2c(-c3cn(CCN4CCCCC4)nn3)c[nH]c2c1 [PPRD12]			competitive antagonist			Kd (5HT3A receptors [1]; read-out: Kd ± SD, 5HT3A): 2.55 µM and 2.6 µM; Kd (α4β2-nAChRs [2]; [11]): >10 µM; Antagonist KA ± SD, α7 (α7-nAChRs; [9]): 4.5 ± 1.5^C, μM; Functional properties at α7-nAChRs (agonist / antagonist) (α7-nAChRs; functional screening and characterization): weak and non-selective α7-nAChR antagonists; Antagonist KA ± SD, α7, non-competitive (α7-nAChRs; [10]): 11.3 ± 4.5^NC μM; Antagonist KA ± SD, 5HT3A (5HT3A receptors [3]; [7]): 2.1 ± 0.3^C μM
COC(=O)c1cc(-c2cn(CCN3CCCCC3)nn2)ccc1O [PPRD14, Methyl 2-hydroxy-5-(1-(2-(piperidin-1-yl)ethyl)-1,2,3-triazol-4-yl)benzoate]	> 10	1.44 µM and 1.4 µM	competitive antagonist		> 10	Kd (α4β2-nAChRs [2]; [6]): > 10 µM; Kd (α7-nAChRs; competitive antagonist (^C), >10 = did not pass initial screen, vs (±)-epibatidine, read-out: Antagonist KA ± SD, α7): > 10 µM
COC(=O)c1cc(-c2cn(CCN3CCCCC3)nn2)ccc1N [PPRD15, Methyl 2-amino-5-(1-(2-(piperidin-1-yl)ethyl)-1,2,3-triazol-4-yl)benzoate]	3.1	6 µM	competitive antagonist		4.4	Kd (α4β2-nAChRs [2]; [6]): > 10 µM
c1cc2c(cc1-c1cn(C3CN4CCC3CC4)nn1)OCO2 (stereo not drawn) [QND1, 3-(4-(Benzo-1,3-dioxol-5-yl)-1,2,3-triazol-1-yl)quinuclidine]	0.12 ± 0.04			0.3 ± 0.04	0.16	Kd (5HT3A receptors [1]; Kd ± SD, 5HT3A): 0.02 to 0.05 µM; Kd (α4β2-nAChRs [2]; [12]): > 10 µM
Nc1ccc(-c2cn(C3CN4CCC3CC4)nn2)cc1 (stereo not drawn) [QND2, 3-(4-Aminophenyl-1,2,3-triazol-1-yl)quinuclidine]	0.05		5HT3A receptor agonist properties			Kd (5HT3A receptors [1]; read-out: Kd ± SD, 5HT3A): 1.21 µM; Kd (α4β2-nAChRs [2]; [11]): >10 µM; Fold increase in α7-nAChR agonist potency over lead compound TTIn-1 (α7-nAChRs): 20 fold; EC50 (5HT3A receptors [3]; * partial agonist, >10 = did not pass initial screen): 1.63 ± 0.29 µM
COc1ccc2cc(-c3cn(C4CN5CCC4CC5)nn3)ccc2c1 (stereo not drawn) [QND6, 3-(4-(6-Methoxynaphthalen-2-yl)-1,2,3-triazol-1-yl)quinuclidine]	22 ± 6	> 10 µM		> 10		Initial screening for binding to α4β2-nAChRs (α4β2-nAChRs [5]): associate well with α4β2-nAChRs; Kd (α4β2-nAChRs [2]; [12]): 7 ± 4.5 µM; Functional properties at α4β2-nAChRs (agonist / antagonist, type) (α4β2-nAChRs [2]): mix-competitive antagonist; Kd (α4β2-nAChRs [2]; [8]): 6.2 ± 0.4 µM
c1ccc2c(-c3cn(C4CN5CCC4CC5)nn3)c[nH]c2c1 (stereo not drawn) [QND12, 3-(4-(Indol-3-yl)-1,2,3-triazol-1-yl)quinuclidine]	0.45 ± 0.14			0.34 ± 0.13	0.92	Kd (5HT3A receptors [1]; Kd ± SD, 5HT3A): 0.02 to 0.05 µM and 0.02 µM; Fold increase of Kd (α7-nAChRs) compared to IND8 [4]: 9 fold; Kd (α4β2-nAChRs [2]; [12]): > 10 µM
COC(=O)c1cc(-c2cn(C3CN4CCC3CC4)nn2)ccc1N (stereo not drawn) [QND15, Methyl 2-amino-5-(1-(quinuclidin-3-yl)-1H-1,2,3-triazol-4-yl)benzoate]	1.34		5HT3A receptor agonist properties	0.26 ± 0.03	3.61	Kd (5HT3A receptors [1]; Kd ± SD, 5HT3A): 0.04 µM; Fold lower affinity for α7-nAChRs than QND2 [4]: 10 fold; Kd (α4β2-nAChRs [2]; [12]): 11.6 ± 1 µM; Functional properties at α4β2-nAChRs (agonist / antagonist, type) (α4β2-nAChRs [2]): competitive antagonism
